Assay: Plasma concentration (Cmax) of gabapentin in the rat

## NCC1(CC(=O)O)CCCCC1 [gabapentin, 1-(aminomethyl)-cyclohexylacetic acid]
  Cmax: 520 to 10500 ng/mL
